# Laboratory results as given in US20050159427A1, “N-acylsulfonamide apoptosis promoters” (priority 2003, published 2005).
# Entries after “also recorded” stand apart in the source; their conditions may differ.
# How the values were obtained:
# SCLC xenograft = assay: Small cell lung cancer xenograft tumor model; type: in vivo, murine
# From the text: (H146 and SCLC xenograft) from human-derived small cell lung cancer isolated from smokers and nonsmokers, defective for Rb/p53 gene function, and expresseive of moderately high levels of Bcl-2.
# SK-MEL-28 = assay: Tumor cell viability (TABLE 1); type: cell-based; details: Homo sapiens, read-out: EC50 (50% reduction in cell viability); SK-MEL-28 (Melanoma); serum-free conditions, 48 hour treatment; mean ± SEM
# MDA-MB-436 = assay: Tumor cell viability (TABLE 1); type: cell-based; details: Homo sapiens, read-out: EC50 (50% reduction in cell viability); MDA-MB-436 (Breast); serum-free conditions, 48 hour treatment; mean ± SEM
# DLD-1 = assay: Tumor cell viability (TABLE 1); type: cell-based; details: Homo sapiens, read-out: EC50 (50% reduction in cell viability); DLD-1 (Colorectal); serum-free conditions, 48 hour treatment; mean ± SEM
# KM12 = assay: Tumor cell viability (TABLE 1); type: cell-based; details: Homo sapiens, read-out: EC50 (50% reduction in cell viability); KM12 (Colorectal); serum-free conditions, 48 hour treatment; mean ± SEM
# CCRF-CEM = CCRF-CEM systemic model of acute lymphoblastoid leukemia; type: in vivo, mouse
# From the text: CCRF-CEM is a p53-mutant acute lympoblastoid leukemia line of T-cell origin used as an animal (mouse) model of systemic leukemia involving intravenous inoculation of tumor cells. If left untreated, the mice succumb to disease within about 34 days post inoculation, at which time extensive tumor infiltration of spleen, liver, and bone marrow has occured.
# PC3 = PC3 derived murine model of prostate cancer; type: in vivo
# SW-620 = assay: Tumor cell viability (TABLE 1); type: cell-based; details: Homo sapiens, read-out: EC50 (50% reduction in cell viability); SW-620 (Colorectal); serum-free conditions, 48 hour treatment; mean ± SEM
# SF-295 = assay: Tumor cell viability (TABLE 1); type: cell-based; details: Homo sapiens, read-out: EC50 (50% reduction in cell viability); SF-295 (CNS); serum-free conditions, 48 hour treatment; mean ± SEM
# Calu-6 = assay: Tumor cell viability (TABLE 1); type: cell-based; details: Homo sapiens, read-out: EC50 (50% reduction in cell viability); Calu-6 (Non-Small Cell Lung); serum-free conditions, 48 hour treatment; mean ± SEM
# SK-OV-3 = assay: Tumor cell viability (TABLE 1); type: cell-based; details: Homo sapiens, read-out: EC50 (50% reduction in cell viability); SK-OV-3 (Ovarian); serum-free conditions, 48 hour treatment; mean ± SEM
# [1] = tested on: A549 human non-small cell lung carcinoma cells; assay: Paclitaxel combination on A549 cells; type: cell-based; details: A549 cells
# SuDHL4 = SuDHL4 model of B-cell follicular lymphoma; type: in vivo
# NCI-H226 = assay: Tumor cell viability (TABLE 1); type: cell-based; details: Homo sapiens, read-out: EC50 (50% reduction in cell viability); NCI-H226 (Non-Small Cell Lung); serum-free conditions, 48 hour treatment; mean ± SEM
# OVCAR-8 = assay: Tumor cell viability (TABLE 1); type: cell-based; details: Homo sapiens, read-out: EC50 (50% reduction in cell viability); OVCAR-8 (Ovarian); serum-free conditions, 48 hour treatment; mean ± SEM
# IGROV-1 = assay: Tumor cell viability (TABLE 1); type: cell-based; details: Homo sapiens, read-out: EC50 (50% reduction in cell viability); IGROV-1 (Ovarian); serum-free conditions, 48 hour treatment; mean ± SEM
# HT-29 = assay: Tumor cell viability (TABLE 1); type: cell-based; details: Homo sapiens, read-out: EC50 (50% reduction in cell viability); HT-29 (Colorectal); serum-free conditions, 48 hour treatment; mean ± SEM
# NCI-H460 = assay: Tumor cell viability (TABLE 1); type: cell-based; details: Homo sapiens, read-out: EC50 (50% reduction in cell viability); NCI-H460 (Non-Small Cell Lung); serum-free conditions, 48 hour treatment; mean ± SEM
# HOP-62 = assay: Tumor cell viability (TABLE 1); type: cell-based; details: Homo sapiens, read-out: EC50 (50% reduction in cell viability); HOP-62 (Non-Small Cell Lung); serum-free conditions, 48 hour treatment; mean ± SEM
# MALME-3M = assay: Tumor cell viability (TABLE 1); type: cell-based; details: Homo sapiens, read-out: EC50 (50% reduction in cell viability); MALME-3M (Melanoma); serum-free conditions, 48 hour treatment; mean ± SEM
# SN12C = assay: Tumor cell viability (TABLE 1); type: cell-based; details: Homo sapiens, read-out: EC50 (50% reduction in cell viability); SN12C (Renal); serum-free conditions, 48 hour treatment; mean ± SEM
# BT-549 = assay: Tumor cell viability (TABLE 1); type: cell-based; details: Homo sapiens, read-out: EC50 (50% reduction in cell viability); BT-549 (Breast); serum-free conditions, 48 hour treatment; mean ± SEM
# RS11380 = RS11380 model of B-cell follicular lymphoma; type: in vivo
# A549/ATCC = assay: Tumor cell viability (TABLE 1); type: cell-based; details: Homo sapiens, read-out: EC50 (50% reduction in cell viability); A549/ATCC (Non-Small Cell Lung); serum-free conditions, 48 hour treatment; mean ± SEM
# [2] = Combination therapy studies with cytotoxic agents; details: with etoposide, vincristine, modified CHOP, doxorubicin, rapamycin and Rituxin®
# [3] = tested on: PC-3 prostate carcinoma cells; assay: Paclitaxel combination on PC-3 cells; type: cell-based
compound,measurement,setting,value
"CN(C)CC[C@H](CSc1ccccc1)Nc1ccc(S(=O)(=O)NC(=O)c2ccc(N3CCN(Cc4ccccc4-c4ccc(Cl)cc4)CC3)cc2)cc1[N+](=O)[O-] [EXAMPLE 2, N-(4-(4-((4′-chloro(1,1′-biphenyl)-2-yl)methyl)piperazin-1-yl)benzoyl)-4-(((1R)-3-(dimethylamino)-1-((phenylsulfanyl)methyl)propyl)amino)-3-nitrobenzenesulfonamide]",anti-tumor activity,SCLC xenograft; SCLC xenograft murine model,demonstrated anti-tumor activity
same,anti-tumor activity compared with paclitaxel,SCLC xenograft; paclitaxel near the maximum tolerated dose,equivalent to slightly better than paclitaxel
same,anti-tumor activity compared with cisplatin and etoposide,SCLC xenograft; small cell lung cancer xenograft tumor model,superior to cisplatin and etoposide
same,EC50,SK-MEL-28,9300 ± 100 nM
same,EC50,MDA-MB-436,3900 ± 2600 nM
same,EC50,DLD-1,990 ± 450 nM
same,EC50,KM12,1700 ± 200 nM
same,activity in leukemia model,CCRF-CEM; CCRF-CEM T-cell acute lymphoblastoid leukemia model,significant activity
same,survival,"CCRF-CEM; mice, intravenous inoculation of tumor cells",prolonged survival; also recorded: increased the average survival
same,tumor infiltration in liver and spleen (histopathology),CCRF-CEM; relative to controls,lower tumor infiltration
same,average spleen weight,CCRF-CEM; relative to vehicle controls,significant decrease in average spleen weight
same,inhibition of tumor growth rate,PC3; PC3 derived murine model of prostate cancer,40-50%
same,therapeutic utility in prostate cancer model,"PC3; mouse, in vivo",Therapeutic utility was also observed
same,EC50,SW-620,690 ± 70 nM
same,EC50,SF-295,7700 ± 2300 nM
same,EC50,Calu-6,180 ± 70 nM
same,EC50,SK-OV-3,5600 ± 1000 nM
same,increase in efficacy of paclitaxel when administered with the compound,[1],about 4.4 fold
same,activity in follicular lymphoma model,SuDHL4,significant activity
same,EC50,NCI-H226,2600 ± 1100 nM
same,EC50,OVCAR-8,3400 ± 800 nM
same,EC50,IGROV-1,1700 ± 600 nM
same,EC50,HT-29,1100 ± 1100 nM
same,EC50,NCI-H460,2300 ± 1500 nM
same,EC50,HOP-62,6300 ± 6700 nM
same,EC50,MALME-3M,1900 ± 800 nM
same,EC50,SN12C,3200 ± 200 nM
same,EC50,BT-549,6500 ± 2300 nM
same,activity in follicular lymphoma model,RS11380,significant activity
same,EC50,A549/ATCC,5200 ± 200 nM
same,effect on efficacy of cytotoxic agents during combination therapy,[2],synergistically enhanced efficacy
same,increase in efficacy of paclitaxel when administered with the compound,[3],4.7 fold
